# In paper PMC6946680, “Modulation of brain cation-Cl^− cotransport via the SPAK kinase inhibitor ZT-1a” (Nature Communications, 2020):
# Where “and” joins values, the source holds several entries; their conditions need not be identical. Equal entries are not always repeated. Entries after “also recorded” stand apart in the source; their conditions may differ.
# Assays:
# GST–[T233E]SPAK kinase = target: T1, GST–[T233E]SPAK kinase (Homo sapiens, UniProt Q9UEW8, T231E); experiment: SPAK kinase assay with CATCHtide and IC50 determination; assay type: biochemical; conditions: for ZT-1a vs SPAK+MO25, kinase activity / ZT-1a vs SPAK, kinase activity: Fig S7b; for ZT-1a vs SPAK, kinase activity: SPAK alone
# T1 construct: made in house; host or cells: E. coli
# Source text: II. Experimental procedures
# 1. Reagents and General methods
# Tissue culture reagents were from Life Technologies. P81 phosphocellulose paper was from Whatman […]
# and [γ-32P]-ATP was from Perkin Elmer. […] Protein G […]
# sepharose was from Amersham. DNA constructs used for transfection were purified from Escherichia coli DH5α using Qiagen or Invitrogen plasmid Maxi kits according to the manufacturer's protocol. All DNA constructs were verified by DNA sequencing.
# 2. Plasmids, protein expression and purification
# DNA clones were from the Division of Signal Transduction Therapy (University of Dundee). The SPAK proteins were expressed in E. Coli and purified as described previously 1.
# 3. SPAK kinase assays and IC50 determination
# SPAK kinase assays employed CATCHtide (cation chloride co-transporter peptide substrate). Peptide kinase assays, performed in triplicate, were set up in a total volume of 50 μl containing 0.5 μg GST– […]
# cpm/pmol) and the indicated concentrations of inhibitor dissolved in DMSO. After incubation for 30 min at 30°C, reactions were terminated by spotting 40 μl of the reaction mix onto P81 phosphocellulose paper and immersion in 50 mM phosphoric acid. The papers were washed extensively and incorporation of [γ-32P]ATP into CATCHtide was quantified by Cerenkov counting.
# IC50 values were calculated with GraphPad Prism using non-linear regression analysis.
# 4. Fluorescence polarization […]
# concentrations between 0.00001 to 1 mM. Data points are the means of three determinations, with error […]
# A Supplemental Fig. 7 Effects of increasing concentrations of ZT-1a on SPAK activity in the absence […]
# the absence or presence of five-fold molar excess of wild-type MO25α. b Kinetic data determined for B ZT-1a in the absence or presence of five-fold molar excess of wild-type MO25α. Data are means of […]
# presence of wild-type MO25α.
# [1] = system: CSF secretion by choroid plexus epithelium; experiment: Rate of CSF production after IVH with intracerebroventricular drug; assay type: in vivo; conditions: rat; ZT-1a treatment for 48 h at 10 µM
# [2] = system: mouse model of ischemic stroke (tMCAO); experiment: Neurological deficit score after tMCAO; assay type: in vivo; conditions: for Neurological score (score): Fig 7c, individual mice #1-#7; for neurological deficit score: ZT-1a 5.0 mg/kg
smiles,measurement,setting,value
"Cc1cc(C(C#N)c2ccc(Cl)cc2)c(Cl)cc1NC(=O)c1cc(Cl)ccc1O (stereo not drawn) [ZT-1a, 5-chloro-N-(5-chloro-4-((4-chlorophenyl)(cyano)methyl)-2-methylphenyl)-2-hydroxybenzamide]",change of SPAK IC50 values on addition of MO25α,GST–[T233E]SPAK kinase,not significantly altered
same,SPAK kinase activity signal (Fig S3 source data),"GST–[T233E]SPAK kinase; ATP 0.01 mM, inhibitor 1e-5 uM",911 and 899 and 905
same,SPAK kinase activity signal (Fig S3 source data),"GST–[T233E]SPAK kinase; ATP 0.01 mM, inhibitor 0.0001 uM",906 and 879 and 883
same,SPAK kinase activity signal (Fig S3 source data),"GST–[T233E]SPAK kinase; ATP 0.01 mM, inhibitor 0.001 uM",901 and 899 and 907
same,SPAK kinase activity signal (Fig S3 source data),"GST–[T233E]SPAK kinase; ATP 0.01 mM, inhibitor 0.003 uM",805
same,SPAK kinase activity signal (Fig S3 source data),"GST–[T233E]SPAK kinase; ATP 0.01 mM, inhibitor 0.03 uM",855 and 847 and 825
same,SPAK kinase activity signal (Fig S3 source data),"GST–[T233E]SPAK kinase; ATP 0.01 mM, inhibitor 0.1 uM",867 and 893 and 851
same,SPAK kinase activity signal (Fig S3 source data),"GST–[T233E]SPAK kinase; ATP 0.01 mM, inhibitor 0.3 uM",813 and 804 and 787
same,SPAK kinase activity signal (Fig S3 source data),"GST–[T233E]SPAK kinase; ATP 0.01 mM, inhibitor 1 uM",756 and 821 and 793
same,SPAK kinase activity signal (Fig S3 source data),"GST–[T233E]SPAK kinase; ATP 0.01 mM, inhibitor 3 uM",663 and 688 and 705
same,SPAK kinase activity signal (Fig S3 source data),"GST–[T233E]SPAK kinase; ATP 0.01 mM, inhibitor 10 uM",478 and 525 and 503
same,SPAK kinase activity signal (Fig S3 source data),"GST–[T233E]SPAK kinase; ATP 0.01 mM, inhibitor 100 uM",456 and 325 and 371
same,SPAK kinase activity signal (Fig S3 source data),"GST–[T233E]SPAK kinase; ATP 0.01 mM, inhibitor 1000 uM",220 and 194 and 213
same,SPAK kinase activity signal (Fig S3 source data),"GST–[T233E]SPAK kinase; ATP 0.1 mM, inhibitor 1e-5 uM",902 and 887 and 849
same,SPAK kinase activity signal (Fig S3 source data),"GST–[T233E]SPAK kinase; ATP 0.1 mM, inhibitor 0.0001 uM",867 and 845 and 874
same,SPAK kinase activity signal (Fig S3 source data),"GST–[T233E]SPAK kinase; ATP 0.1 mM, inhibitor 0.001 uM",844 and 856 and 837
same,SPAK kinase activity signal (Fig S3 source data),"GST–[T233E]SPAK kinase; ATP 0.1 mM, inhibitor 0.03 uM",798 and 815 and 804
same,SPAK kinase activity signal (Fig S3 source data),"GST–[T233E]SPAK kinase; ATP 0.1 mM, inhibitor 0.1 uM",796 and 805 and 782
same,SPAK kinase activity signal (Fig S3 source data),"GST–[T233E]SPAK kinase; ATP 0.1 mM, inhibitor 0.3 uM",796 and 786 and 754
same,SPAK kinase activity signal (Fig S3 source data),"GST–[T233E]SPAK kinase; ATP 0.1 mM, inhibitor 1 uM",802 and 788 and 766
same,SPAK kinase activity signal (Fig S3 source data),"GST–[T233E]SPAK kinase; ATP 0.1 mM, inhibitor 3 uM",706 and 686 and 718
same,SPAK kinase activity signal (Fig S3 source data),"GST–[T233E]SPAK kinase; ATP 0.1 mM, inhibitor 10 uM",561 and 556 and 583
same,SPAK kinase activity signal (Fig S3 source data),"GST–[T233E]SPAK kinase; ATP 0.1 mM, inhibitor 100 uM",226 and 309 and 284
same,SPAK kinase activity signal (Fig S3 source data),"GST–[T233E]SPAK kinase; ATP 0.1 mM, inhibitor 1000 uM",187 and 106 and 158
same,SPAK kinase activity signal (Fig S3 source data),"GST–[T233E]SPAK kinase; ATP 1 mM, inhibitor 1e-5 uM",880 and 891 and 864
same,SPAK kinase activity signal (Fig S3 source data),"GST–[T233E]SPAK kinase; ATP 1 mM, inhibitor 0.0001 uM",892 and 902 and 916
same,SPAK kinase activity signal (Fig S3 source data),"GST–[T233E]SPAK kinase; ATP 1 mM, inhibitor 0.001 uM",869 and 902 and 885
same,SPAK kinase activity signal (Fig S3 source data),"GST–[T233E]SPAK kinase; ATP 1 mM, inhibitor 0.03 uM",812 and 786 and 753
same,SPAK kinase activity signal (Fig S3 source data),"GST–[T233E]SPAK kinase; ATP 1 mM, inhibitor 0.1 uM",862 and 807 and 759
same,SPAK kinase activity signal (Fig S3 source data),"GST–[T233E]SPAK kinase; ATP 1 mM, inhibitor 0.3 uM",768 and 789 and 736
same,SPAK kinase activity signal (Fig S3 source data),"GST–[T233E]SPAK kinase; ATP 1 mM, inhibitor 1 uM",662 and 719 and 681
same,SPAK kinase activity signal (Fig S3 source data),"GST–[T233E]SPAK kinase; ATP 1 mM, inhibitor 3 uM",641 and 604 and 563
same,SPAK kinase activity signal (Fig S3 source data),"GST–[T233E]SPAK kinase; ATP 1 mM, inhibitor 10 uM",554 and 604 and 587
same,SPAK kinase activity signal (Fig S3 source data),"GST–[T233E]SPAK kinase; ATP 1 mM, inhibitor 100 uM",453 and 345 and 405
same,SPAK kinase activity signal (Fig S3 source data),"GST–[T233E]SPAK kinase; ATP 1 mM, inhibitor 1000 uM",222 and 164 and 186
same,change of SPAK IC50 values with increasing ATP concentration,GST–[T233E]SPAK kinase; ATP between 0.01 and 1 mM,unchanged; also recorded: unaffected by changing [ATP]
same,"ZT-1a vs SPAK+MO25, kinase activity",GST–[T233E]SPAK kinase; ZT-1a 1e-5 uM,401897 C.P.M and 396529 C.P.M and 387112 C.P.M
same,"ZT-1a vs SPAK+MO25, kinase activity",GST–[T233E]SPAK kinase; ZT-1a 0.0001 uM,393641 C.P.M and 402385 C.P.M and 384718 C.P.M
same,"ZT-1a vs SPAK+MO25, kinase activity",GST–[T233E]SPAK kinase; ZT-1a 0.001 uM,392612 C.P.M and 367664 C.P.M and 337143 C.P.M
same,"ZT-1a vs SPAK+MO25, kinase activity",GST–[T233E]SPAK kinase; ZT-1a 0.003 uM,363431 C.P.M and 388438 C.P.M and 371694 C.P.M
same,"ZT-1a vs SPAK+MO25, kinase activity",GST–[T233E]SPAK kinase; ZT-1a 0.01 uM,359080 C.P.M and 382836 C.P.M and 362174 C.P.M
same,"ZT-1a vs SPAK+MO25, kinase activity",GST–[T233E]SPAK kinase; ZT-1a 0.03 uM,408327 C.P.M and 384102 C.P.M and 373519 C.P.M
same,"ZT-1a vs SPAK+MO25, kinase activity",GST–[T233E]SPAK kinase; ZT-1a 0.1 uM,381538 C.P.M and 398205 C.P.M and 371203 C.P.M
same,"ZT-1a vs SPAK+MO25, kinase activity",GST–[T233E]SPAK kinase; ZT-1a 0.3 uM,371591 C.P.M and 394205 C.P.M and 361553 C.P.M
same,"ZT-1a vs SPAK+MO25, kinase activity",GST–[T233E]SPAK kinase; ZT-1a 1 uM,365869 C.P.M and 359432 C.P.M and 371032 C.P.M
same,"ZT-1a vs SPAK+MO25, kinase activity",GST–[T233E]SPAK kinase; ZT-1a 3 uM,354403 C.P.M and 355755 C.P.M and 331937 C.P.M
same,"ZT-1a vs SPAK+MO25, kinase activity",GST–[T233E]SPAK kinase; ZT-1a 10 uM,325521 C.P.M and 299490 C.P.M and 282196 C.P.M
same,"ZT-1a vs SPAK+MO25, kinase activity",GST–[T233E]SPAK kinase; ZT-1a 100 uM,119789 C.P.M and 97606 C.P.M and 83035 C.P.M
same,"ZT-1a vs SPAK+MO25, kinase activity",GST–[T233E]SPAK kinase; ZT-1a 1000 uM,31455 C.P.M and 51772 C.P.M and 49172 C.P.M
same,"ZT-1a vs SPAK, kinase activity",GST–[T233E]SPAK kinase; ZT-1a 1e-5 uM,48785 C.P.M and 47183 C.P.M and 49610 C.P.M
same,"ZT-1a vs SPAK, kinase activity",GST–[T233E]SPAK kinase; ZT-1a 0.0001 uM,46475 C.P.M and 45108 C.P.M and 47685 C.P.M
same,"ZT-1a vs SPAK, kinase activity",GST–[T233E]SPAK kinase; ZT-1a 0.001 uM,47080 C.P.M and 46113 C.P.M and 46420 C.P.M
same,"ZT-1a vs SPAK, kinase activity",GST–[T233E]SPAK kinase; ZT-1a 0.003 uM,44660 C.P.M and 45821 C.P.M and 45595 C.P.M
same,"ZT-1a vs SPAK, kinase activity",GST–[T233E]SPAK kinase; ZT-1a 0.01 uM,45890 C.P.M and 44094 C.P.M and 44440 C.P.M
same,"ZT-1a vs SPAK, kinase activity",GST–[T233E]SPAK kinase; ZT-1a 0.03 uM,44825 C.P.M and 43187 C.P.M and 44890 C.P.M
same,"ZT-1a vs SPAK, kinase activity",GST–[T233E]SPAK kinase; ZT-1a 0.1 uM,44275 C.P.M and 42127 C.P.M and 44780 C.P.M
same,"ZT-1a vs SPAK, kinase activity",GST–[T233E]SPAK kinase; ZT-1a 0.3 uM,44230 C.P.M and 41993 C.P.M and 43780 C.P.M
same,"ZT-1a vs SPAK, kinase activity",GST–[T233E]SPAK kinase; ZT-1a 1 uM,43840 C.P.M and 42097 C.P.M and 44510 C.P.M
same,"ZT-1a vs SPAK, kinase activity",GST–[T233E]SPAK kinase; ZT-1a 3 uM,41230 C.P.M and 39714 C.P.M and 40580 C.P.M
same,"ZT-1a vs SPAK, kinase activity",GST–[T233E]SPAK kinase; ZT-1a 10 uM,29580 C.P.M and 31008 C.P.M and 33855 C.P.M
same,"ZT-1a vs SPAK, kinase activity",GST–[T233E]SPAK kinase; ZT-1a 100 uM,14995 C.P.M and 17307 C.P.M and 16430 C.P.M
same,"ZT-1a vs SPAK, kinase activity",GST–[T233E]SPAK kinase; ZT-1a 1000 uM,5830 C.P.M and 7520 C.P.M and 9285 C.P.M
same,IC50,GST–[T233E]SPAK kinase; absence of wild-type MO25α,40.5 µM
same,IC50,GST–[T233E]SPAK kinase; presence of five-fold molar excess of wild-type MO25α,41.3 µM
same,decrease of post-IVH CSF hypersecretion,[1],~ 2.3 fold
same,Neurological score (score),[2]; Day 0,3 score
same,Neurological score (score),[2]; Day 1,3 score and 2 score (5×) and 1 score
same,Neurological score (score),[2]; Day 3,2 score (6×) and 1 score
same,Neurological score (score),[2]; Day 5,1 score (3×) and 2 score (4×)
same,Neurological score (score),[2]; Day 7,1 score (4×) and 2 score (3×)
same,neurological deficit score,[2]; day 1 post tMCAO,2.0 ± 0.2
same,neurological deficit score,[2]; day 7 post tMCAO,1.4 ± 0.2
